Where a SMILES comes first, the peptide text is derived from it. The star is where a group is joined. Cbz = O=C(OCc1ccccc1)*
Assays:
[1] = target: γ-secretase complex (Homo sapiens, UniProt P49768); test: APP-C99 counter assay (GSI reporter assay); format: cell-based; settings: for 3p-DR in % of DMSO counter: APP-C99 counter assay
Outline: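 Cells transfected with APP-C99 firefly luciferase reporter plus renilla normalization plasmid, seeded 24 h later onto compound plates and cultured 24 h. Dual luciferase read in triplicate per concentration; IC50 from variable-slope log(inhibitor) fit, with AUC also calculated from dose–response curves.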

[2] = tested on: T-ALL and breast cancer cell lines; test: Growth inhibition in tumour cell lines (panel, cell lines not named singly); format: cell-based; settings: overview in comparison to compound C; Supplemental Fig. 9
Description: We next investigated whether compounds A-E affected growth and viability of cell lines from T-cell acute lymphoblastic leukaemia (T-ALL) and breast cancer, two tumour types in which elevated Notch signalling has been implicated in tumorigenesis. […] When testing analogues of compounds B and C, five of the seven B analogues and one of the two C analogues produced dose–response curves and IC50s, which however were higher compared to the original hits (Supplemental Fig. 5A; IC50s are presented in Supplemental Table 6).
Compounds were spotted on white 384-well tissue culture plates (Greiner, cat #781080) using an Echo 525 Acoustic liquid handler (Labcyte). Cells were grown to 80% confluence, detached if required, counted and 20 µl containing 2000–4000 cells per well was then seeded in each well and cultivated for three (4,000 cells seeded) and six days (2,000 cells seeded). […] Luciferase activity (reading out metabolic activity) was determined using the CellTiter-Glo 2.0 kit (CTG, Promega, cat #G9242) following the manufacturer’s instructions and luminescence was measured on a SpectraMaxi3 or Varioscan plate reader (Molecular Devices, Thermofisher).

[3] = tested on: Notch signalling; test: Notch reporter assay (12xCSL firefly luciferase / renilla luciferase, HEK293T Notch1ΔE reporter cell line clone #A1-11); format: cell-based; parameters: Confirmation screen: unit not given here; settings: for inhibitor ratio in % of DMSO in 3 point DR: 3-point DR confirmation screen, Notch reporter assay
Outline: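 Compounds at two-fold concentration in 10 µl medium were brought to one-fold by adding 10 µl holding 4000 Notch reporter cells (clone #A1-11) per well of a 384-well plate. After 24 h, Promega dual-GLO firefly and renilla luciferase were read on a SpectraMaxi3. Dose-response curves were fitted with a log(inhibitor) vs. response variable-slope model.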

[4] = tested on: Notch signalling; test: as above; format: cell-based; settings: 24 h, unit from Fig. 2 legend
[5] = tested on: mNotch1ΔE fused to an HiBiT tag; test: HiBit reporter assay; format: cell-based, mouse; settings: 24 h, 14-point dose-response; Supplemental Fig. 8D,G
Protocol: The Notch1ΔE construct used to generate the Notch reporter cell line (see above) was first cloned in frame into the pBiT3.2-C [TK/HiBiT/Blast] Vector (Promega) and then stably introduced into HEK293T wild type cells, using Lipofectamine transfection, as described. Analogous to the Notch reporter cell line, Blasticidin was used as a selection marker (0.1 mg/ml) and stable cell lines with robust luciferase signals were generated. […] A clone (#D2) with an empty HiBit vector stably integrated was used as control.
20 µl containing 4,000 cells were seeded on 384-well pre-spotted compound plates (Greiner, cat #781080). Cells were incubated for 24 h and viability was determined using CellTiter-Fluor (Promega, cat # G6080), following the manufacturer’s instructions. Next, cells were subjected to the HiBit assay according to the manufacturer’s instructions (Promega, cat # N3030). Prior to cell lysis, the tissue culture plates were allowed to cool down to room temperate. Fluorescence and luminescence signals were recorded using a SpectraMax i3 (Molecular devices) and signals were read at different time-points to determine optimal signal stability. Cells cultivated only with DMSO were used as a reference to determine effects of compounds. MG132, Bafilomycin A1 and the GSI RO4929097 served as additional controls. Celastrol was used to determine the assay window, and a minimum of two technical replicates were measured per assay.

[6] = overview in comparison to compound C, Supplemental Fig. 9
[7] = 10 µM, sheet conf vs counter 10 µM
[8] = 25 µM, sheet "conf vs counter 25 µM", same values given as % of DMSO in sheet "3p-DR in % of DMSO counter"
[9] = 10 µM, sheet conf vs counter 10 µM, same values as 3-point DR confirmation screen
[10] = 25 µM, Notch reporter 3-point dose-confirmation assay, sheet "conf vs counter 25 µM"

| Compound | 3p-DR in % of DMSO counter ([1]; 10µM) | Counter screen (Hek APP-C99) [1, 7] | 3p-DR in % of DMSO counter ([1]; 25µM) | Counter screen (Hek APP-C99) [1, 8] | 3p-DR in % of DMSO counter ([1]; 1,25µM) | APP assay [1, 6] | viability assay [2] | IC50 ([3]; expanded dose range 500 nM-25 pM, Fig. 7E, read-out: IC50, Notch reporter activity) [nM] | Notch assay [3, 6] | Primary screen at 10 µM (Notch reporter signal) [4] | inhibitor ratio in % of DMSO in 3 point DR ([3]; 10µM) | Confirmation screen [3, 9] | inhibitor ratio in % of DMSO in 3 point DR ([3]; 25µM) | Confirmation screen [3, 10] | inhibitor ratio in % of DMSO in 3 point DR ([3]; 1,25µM) | HiBiT luciferase signal [5] |
| --- | --- | --- | --- | --- | --- | --- | --- | --- | --- | --- | --- | --- | --- | --- | --- | --- |
| BAY2402234 [reference compound] |  |  |  |  |  | higher potency | reduced | 11 | higher potency |  |  |  |  |  |  |  |
| COc1cc(Nc2cc(-c3ccccc3N(C)C)ncn2)cc(OC)c1OC [CBK090702] | 148.1 % of DMSO | 148.1 | 225.5 % of DMSO | 225.5 | 124.5 % of DMSO |  |  |  |  | 68.4 % of DMSO | 85.7 % of DMSO | 85.7 | 55.7 % of DMSO | 55.7 | 97.2 % of DMSO |  |
| CC(C)C[C@@H](C=O)NC(=O)[C@H](CC(C)C)NC(=O)[C@H](CC(C)C)NC(=O)OCc1ccccc1 [MG132, reference compound] (Cbz-Leu-Leu-Leu-aldehyde) |  |  |  |  |  |  |  |  |  |  |  |  |  |  |  | increased the HiBiT signal |
| O=C(Nc1ccc(O)c(-c2nc3ccccc3o2)c1)c1ccc(-c2ccc([N+](=O)[O-])cc2)o1 [CBK263439] | 127.0 % of DMSO | 127.0 | 166.0 % of DMSO | 166.0 | 130.0 % of DMSO |  |  |  |  | 63.7 % of DMSO | 110.7 % of DMSO | 110.7 | 101.9 % of DMSO | 101.9 | 103.9 % of DMSO |  |
| NC(=O)c1c(NC(=S)NC(NC(=O)c2ccccc2)C(Cl)(Cl)Cl)sc2c1CCCC2 (stereo not shown) [CBK261048] | 72.6 % of DMSO | 72.6 | 66.8 % of DMSO | 66.8 | 111.1 % of DMSO |  |  |  |  | 67.0 % of DMSO | 66.7 % of DMSO | 66.7 | 49.9 % of DMSO | 49.9 | 102.1 % of DMSO |  |
| CO/C1=C\C(C)=C\[C@@H](C)[C@@H](O)[C@@H](C)C/C(C)=C/C=C/[C@H](OC)[C@@H]([C@@H](C)[C@@H](O)[C@H](C)[C@@]2(O)C[C@@H](O)[C@H](C)[C@@H](C(C)C)O2)OC1=O [Bafilomycin A1, reference compound] |  |  |  |  |  |  |  |  |  |  |  |  |  |  |  | increased the HiBiT signal |
| FC(F)(F)CCN1CCC2(CC1)NCCc1c2[nH]c2ccc(Cl)cc12 [CBK039331] | 111.0 % of DMSO | 111.0 | 121.8 % of DMSO | 121.7 | 81.3 % of DMSO |  |  |  |  | 64.3 % of DMSO | 79.3 % of DMSO | 79.3 | 73.3 % of DMSO | 73.3 | 98.4 % of DMSO |  |
| C[C@@H]1C(=O)O[C@H]2[C@H]1CC[C@@]1(C)Cc3sc(NC(=O)CN(C)C)nc3[C@@H](C)[C@H]21 [CBK289431] | 58.4 % of DMSO | 58.4 | 61.0 % of DMSO | 61.0 | 71.4 % of DMSO |  |  |  |  | 41.2 % of DMSO | 39.6 % of DMSO | 39.6 | 35.0 % of DMSO | 35.0 | 40.7 % of DMSO |  |

The next lines start with results.

| 3p-DR in % of DMSO counter ([1]; 10µM) | Counter screen (Hek APP-C99) [1, 7] | 3p-DR in % of DMSO counter ([1]; 25µM) | Counter screen (Hek APP-C99) [1, 8] | 3p-DR in % of DMSO counter ([1]; 1,25µM) | Compound | APP assay [1, 6] | viability assay [2] | IC50 ([3]; expanded dose range 500 nM-25 pM, Fig. 7E, read-out: IC50, Notch reporter activity) [nM] | Notch assay [3, 6] | Primary screen at 10 µM (Notch reporter signal) [4] | inhibitor ratio in % of DMSO in 3 point DR ([3]; 10µM) | Confirmation screen [3, 9] | inhibitor ratio in % of DMSO in 3 point DR ([3]; 25µM) | Confirmation screen [3, 10] | inhibitor ratio in % of DMSO in 3 point DR ([3]; 1,25µM) | HiBiT luciferase signal [5] |
| --- | --- | --- | --- | --- | --- | --- | --- | --- | --- | --- | --- | --- | --- | --- | --- | --- |
| 81.1 % of DMSO | 81.1 | 76.7 % of DMSO | 76.7 | 74.5 % of DMSO | COc1ccc(N(CC(O)CN2CCOCC2)S(=O)(=O)c2ccccc2)cc1 (stereo not shown) [CBK263589] |  |  |  |  | 69.0 % of DMSO | 96.3 % of DMSO | 96.3 | 100.1 % of DMSO | 100.1 | 103.6 % of DMSO |  |
| 16.4 % of DMSO | 16.4 | 13.7 % of DMSO | 13.7 | 29.7 % of DMSO | O=C(O)c1c2c(nc3ccccc13)C(=Cc1ccc3c(c1)OCCO3)CC2 [CBK297479] |  |  |  |  | 18.5 % of DMSO | 15.2 % of DMSO | 15.2 | 7.0 % of DMSO | 7.0 | 22.8 % of DMSO |  |
| 59.0 % of DMSO | 59.0 | 46.1 % of DMSO | 46.1 | 61.2 % of DMSO | COc1cccc(OCC2CCCN(C(=O)CCc3cnn(C)c3)C2)c1 (stereo not shown) [CBK306931] |  |  |  |  | 46.7 % of DMSO | 57.0 % of DMSO | 57.0 | 34.9 % of DMSO | 34.9 | 63.9 % of DMSO |  |
| 45.0 % of DMSO | 45.0 | 59.5 % of DMSO | 59.5 | 53.8 % of DMSO | CCC(C)(C)c1ccc(S(=O)(=O)Nc2ccc3ncsc3c2)cc1 [CBK043490] |  |  |  |  | 46.9 % of DMSO | 33.5 % of DMSO | 33.5 | 42.6 % of DMSO | 42.6 | 42.1 % of DMSO |  |
| 45.9 % of DMSO | 45.9 | 37.5 % of DMSO | 37.5 | 59.5 % of DMSO | c1ccc2c(c1)CCN(c1nc3cc4c(cc3s1)OCCO4)C2 [CBK287498] |  |  |  |  | 36.8 % of DMSO | 38.9 % of DMSO | 38.9 | 27.1 % of DMSO | 27.1 | 48.5 % of DMSO |  |
| 40.4 % of DMSO | 40.4 | 38.9 % of DMSO | 38.9 | 49.9 % of DMSO | CC(=O)Nc1cccc(-c2ccc(Nc3cccc(N(C)C)c3)nc2)c1 [CBK036829] |  |  |  |  | 22.4 % of DMSO | 28.3 % of DMSO | 28.3 | 23.9 % of DMSO | 23.9 | 30.6 % of DMSO |  |
